# Inconclusive results and toxic doses are left out.
# Test system: L1210 leukemia ip in BDF1 mice, survival T/C
# Assay: NCI In Vivo Anticancer Drug Screen. Data for tumor model L1210 Leukemia (intraperitoneal) in B6D2F1 (BDF1) mice
# Settings: endpoint: mean survival time, higher = longer survival
# How it was run: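 Each compound was tested against a transplantable tumor grown in mice. The endpoint was survival, with treated animals benchmarked against vehicle controls as a simple ratio.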
# [1] = dose: 25.0 mg/kg/injection, schedule: Q04DX003 (ip), vehicle: saline
# [2] = dose: 50.0 mg/kg/injection, schedule: Q04DX003 (ip), vehicle: saline
# [3] = dose: 100.0 mg/kg/injection, schedule: Q01DX009 (ip), vehicle: saline
# [4] = dose: 100.0 mg/kg/injection, schedule: Q04DX003 (ip), vehicle: saline with Tween-80
# [5] = dose: 100.0 mg/kg/injection, schedule: Q04DX003 (ip), vehicle: saline
# [6] = dose: 200.0 mg/kg/injection, schedule: Q04DX003 (ip), vehicle: saline
# [7] = dose: 100.0 mg/kg/injection, schedule: Q01DX001 (ip), vehicle: carboxymethylcellulose (CMC)
# [8] = dose: 200.0 mg/kg/injection, schedule: Q01DX001 (ip), vehicle: carboxymethylcellulose (CMC)
# [9] = dose: 400.0 mg/kg/injection, schedule: Q01DX001 (ip), vehicle: carboxymethylcellulose (CMC)
# [10] = dose: 100.0 mg/kg/injection, schedule: Q04DX003 (ip), vehicle: Klucel (hydroxypropylcellulose) (HPC)
# [11] = dose: 200.0 mg/kg/injection, schedule: Q04DX003 (ip), vehicle: Klucel (hydroxypropylcellulose) (HPC)
# [12] = dose: 400.0 mg/kg/injection, schedule: Q04DX003 (ip), vehicle: Klucel (hydroxypropylcellulose) (HPC)
# [13] = dose: 30.0 mg/kg/injection, schedule: Q01DX Z (ip), vehicle: saline
# [14] = dose: 200.0 mg/kg/injection, schedule: Q04DX003 (ip), vehicle: saline with Tween-80
# [15] = dose: 50.0 mg/kg/injection, schedule: Q01DX009 (ip), vehicle: saline with Tween-80
# [16] = dose: 100.0 mg/kg/injection, schedule: Q01DX009 (ip), vehicle: Klucel (hydroxypropylcellulose) (HPC)
# [17] = dose: 200.0 mg/kg/injection, schedule: Q01DX009 (ip), vehicle: Klucel (hydroxypropylcellulose) (HPC)
# [18] = dose: 400.0 mg/kg/injection, schedule: Q01DX009 (ip), vehicle: Klucel (hydroxypropylcellulose) (HPC)
# [19] = dose: 100.0 mg/kg/injection, schedule: Q01DX001 (ip), vehicle: saline
# [20] = dose: 200.0 mg/kg/injection, schedule: Q01DX001 (ip), vehicle: saline
# [21] = dose: 400.0 mg/kg/injection, schedule: Q01DX001 (ip), vehicle: saline
# [22] = dose: 100.0 mg/kg/injection, schedule: Q01DX009 (ip), vehicle: saline with Tween-80
# [23] = dose: 200.0 mg/kg/injection, schedule: Q01DX009 (ip), vehicle: saline with Tween-80
# [24] = dose: 200.0 mg/kg/injection, schedule: Q01DX009 (ip), vehicle: saline
# [25] = dose: 400.0 mg/kg/injection, schedule: Q04DX003 (ip), vehicle: saline
# [26] = dose: 400.0 mg/kg/injection, schedule: Q04DX003 (ip), vehicle: saline with Tween-80
smiles,measurement,setting,value
CC(=O)n1cc(F)c(=O)[nH]c1=O,T/C,"dose: 2.1 mg/kg/injection, schedule: Q01DX009 (ip), vehicle: saline with Tween-80",108 % of control
same,T/C,"dose: 3.1 mg/kg/injection, schedule: Q01DX009 (ip), vehicle: saline with Tween-80",111 % of control
same,T/C,"dose: 6.25 mg/kg/injection, schedule: Q04DX003 (ip), vehicle: saline",108 % of control
same,T/C,"dose: 12.5 mg/kg/injection, schedule: Q04DX003 (ip), vehicle: saline",115 % of control
same,T/C,"dose: 25.0 mg/kg/injection, schedule: Q01DX009 (ip), vehicle: saline",152 % of control
same,T/C,[1],123 % of control
same,T/C,[2],151 % of control
same,T/C,[3],101 % of control
same,T/C,[4],188 % of control
same,T/C,[5],207 % of control
same,T/C,"dose: 150.0 mg/kg/injection, schedule: Q01DX001 (ip), vehicle: saline",152 % of control
same,T/C,[6],113 % of control
same,T/C,"dose: 300.0 mg/kg/injection, schedule: Q01DX001 (ip), vehicle: saline",151 % of control
c1ccc2c(N=Nc3cccc4ccccc34)cccc2c1,T/C,[7],97 % of control
same,T/C,[8],97 % of control
same,T/C,[9],93 % of control
CCCn1/c(=N\N=O)sc2ccccc21,T/C,[10],93 % of control
same,T/C,[11],95 % of control
same,T/C,[12],92 % of control
O=C1O/C(=C2\OCc3ccccc32)c2ccccc21,T/C,"dose: 50.0 mg/kg/injection, schedule: Q01DX001 (ip), vehicle: carboxymethylcellulose (CMC)",91 % of control
same,T/C,[7],107 % of control
same,T/C,[8],100 % of control
same,T/C,[9],91 % of control
C[n+]1ccccc1NC(=O)c1ccc(C(=O)Nc2cccc[n+]2C)cc1,T/C,"dose: 7.5 mg/kg/injection, schedule: Q01DX Z (ip), vehicle: saline",98 % of control
same,T/C,"dose: 15.0 mg/kg/injection, schedule: Q01DX Z (ip), vehicle: saline",100 % of control
same,T/C,[13],87 % of control
same,T/C,"dose: 120.0 mg/kg/injection, schedule: Q01DX Z (ip), vehicle: saline",87 % of control
same,T/C,"dose: 240.0 mg/kg/injection, schedule: Q01DX Z (ip), vehicle: saline",91 % of control
OC1C(OCc2ccccc2)OC(COCc2ccccc2)C(OC2OC(COCc3ccccc3)C(OCc3ccccc3)C(OCc3ccccc3)C2OCc2ccccc2)C1OCc1ccccc1 (configuration not stated),T/C,"dose: 200.0 mg/kg/injection, schedule: Q01DX009 (ip), vehicle: alcohol",94 % of control
same,T/C,"dose: 400.0 mg/kg/injection, schedule: Q01DX009 (ip), vehicle: alcohol",86 % of control
NCCCCC(N)C(=O)NCCCNCCCCNCCCNC(=O)C(N)CCCCN (configuration not stated),T/C,"dose: 3.0 mg/kg/injection, schedule: Q01DX Z (ip), vehicle: saline",104 % of control
same,T/C,"dose: 10.0 mg/kg/injection, schedule: Q01DX Z (ip), vehicle: saline",94 % of control
same,T/C,[13],93 % of control
same,T/C,"dose: 100.0 mg/kg/injection, schedule: Q01DX Z (ip), vehicle: saline",106 % of control
CC(=O)Nc1ccc(C)cc1,T/C,"dose: 100.0 mg/kg/injection, schedule: Q01DX001 (ip), vehicle: Klucel (hydroxypropylcellulose) (HPC)",94 % of control
same,T/C,"dose: 200.0 mg/kg/injection, schedule: Q01DX001 (ip), vehicle: Klucel (hydroxypropylcellulose) (HPC)",102 % of control
same,T/C,"dose: 400.0 mg/kg/injection, schedule: Q01DX001 (ip), vehicle: Klucel (hydroxypropylcellulose) (HPC)",91 % of control
CN(C=O)c1ccccc1,T/C,"dose: 100.0 mg/kg/injection, schedule: Q04DX002 (ip), vehicle: saline",106 % of control
same,T/C,"dose: 200.0 mg/kg/injection, schedule: Q04DX002 (ip), vehicle: saline",102 % of control
same,T/C,"dose: 400.0 mg/kg/injection, schedule: Q04DX002 (ip), vehicle: saline",95 % of control
O=C1C=CC(=O)N1c1ccc(N2C(=O)C=CC2=O)cc1,T/C,[1],110 % of control
same,T/C,[2],107 % of control
same,T/C,[5],100 % of control
Cc1ccc(N=Nc2ccc(N(C)C)cc2)c2cccnc12,T/C,[4],113 % of control
same,T/C,[14],95 % of control
COc1ccc(C(C)C(C)=O)cc1 (configuration not stated),T/C,[15],95 % of control
CC12CCC(O)CC1CCC1C2CCC2(C)C1CC1NC12 (configuration not stated),T/C,"dose: 100.0 mg/kg/injection, schedule: Q01DX001 (sc), vehicle: steriod suspending solution",92 % of control
same,T/C,"dose: 200.0 mg/kg/injection, schedule: Q01DX001 (sc), vehicle: steriod suspending solution",94 % of control
CCn1ccc(=O)c2cc([N+](=O)[O-])ccc21,T/C,[16],95 % of control
same,T/C,[10],92 % of control
same,T/C,[17],103 % of control
same,T/C,[11],92 % of control
same,T/C,[18],92 % of control
same,T/C,[12],91 % of control
CSc1ncc(CO)c(N2CC2)n1,T/C,"dose: 100.0 mg/kg/injection, schedule: Q01DX Z (ip), vehicle: methylcellulose (MC)",87 % of control
C=CCSc1ccc(Cl)cc1,T/C,[19],105 % of control
same,T/C,[20],103 % of control
OCn1c(O)c2ccccc2c1N=Nc1ccccc1,T/C,[19],95 % of control
same,T/C,[20],95 % of control
same,T/C,[21],95 % of control
Nc1nc(N)nc(-c2ccccc2)n1,T/C,[15],94 % of control
same,T/C,[16],111 % of control
same,T/C,[22],94 % of control
same,T/C,"dose: 100.0 mg/kg/injection, schedule: Q04DX002 (ip), vehicle: Klucel (hydroxypropylcellulose) (HPC)",114 % of control
same,T/C,[17],111 % of control
same,T/C,[23],97 % of control
same,T/C,"dose: 200.0 mg/kg/injection, schedule: Q04DX002 (ip), vehicle: Klucel (hydroxypropylcellulose) (HPC)",107 % of control
same,T/C,[18],93 % of control
same,T/C,"dose: 400.0 mg/kg/injection, schedule: Q04DX002 (ip), vehicle: Klucel (hydroxypropylcellulose) (HPC)",88 % of control
CC(OC(=O)Nc1ccc(S(=O)(=O)NC2CCCCC2)cc1)(c1ccccc1)C1CCCCC1 (configuration not stated),T/C,[19],105 % of control
same,T/C,[20],105 % of control
same,T/C,[21],100 % of control
CCCCOB(OCCCC)Oc1c(C(C)(C)C)cccc1C(C)(C)C,T/C,[3],106 % of control
same,T/C,[5],89 % of control
same,T/C,[24],93 % of control
same,T/C,[6],92 % of control
same,T/C,"dose: 400.0 mg/kg/injection, schedule: Q01DX009 (ip), vehicle: saline",108 % of control
same,T/C,[25],91 % of control
CCCCNC(=O)Nc1ccccc1OCC,T/C,[16],93 % of control
same,T/C,[10],94 % of control
same,T/C,[17],92 % of control
same,T/C,[11],104 % of control
same,T/C,[18],97 % of control
same,T/C,[12],94 % of control
C1=CC2(CC1)OCCO2,T/C,[15],106 % of control
same,T/C,"dose: 50.0 mg/kg/injection, schedule: Q04DX003 (ip), vehicle: saline with Tween-80",91 % of control
same,T/C,[22],104 % of control
same,T/C,[4],102 % of control
same,T/C,[23],106 % of control
same,T/C,[14],92 % of control
same,T/C,"dose: 400.0 mg/kg/injection, schedule: Q01DX009 (ip), vehicle: saline with Tween-80",104 % of control
same,T/C,[26],102 % of control
CCCCCCCCCCCCCCCC[n+]1cccc(C(=O)NCO)c1,T/C,[7],93 % of control
same,T/C,[8],102 % of control
O=C(c1ccccc1)c1c2ccccc2cc2ccccc12,T/C,[15],91 % of control
same,T/C,[22],90 % of control
same,T/C,[4],89 % of control
same,T/C,[14],89 % of control
same,T/C,[26],90 % of control
Cc1ccc2nc(CCl)[nH]c2c1,T/C,"dose: 50.0 mg/kg/injection, schedule: Q01DX001 (ip), vehicle: saline",119 % of control
same,T/C,[19],113 % of control
same,T/C,[20],107 % of control
COc1cc(NS(C)(=O)=O)ccc1N,T/C,[3],103 % of control
same,T/C,[5],107 % of control
same,T/C,[24],98 % of control
same,T/C,[6],103 % of control
same,T/C,[25],102 % of control

# — PubChem BioAssay AID248 (DTP/NCI, 2004)
